Reference: ChEMBL document CHEMBL1152034, “Solid phase synthesis of phosphinic acid endothelin converting enzyme inhibitors” (Bioorg Med Chem Lett, 1996)

Columns and labels:
Neprilysin = Neprilysin (Homo sapiens, UniProt P08473); experiment: Inhibition of neutral endopeptidase in human umbilical vein endothelial cells; type: cell-based, Endothelial cell
[1] = biological target: T1, Endothelin-converting enzyme 1 (Homo sapiens, UniProt P42892); experiment: Inhibition of endothelin-converting enzyme in human umbilical vein endothelial cells; type: cell-based, Endothelial cell
T1 sequence (P42892 whole entry): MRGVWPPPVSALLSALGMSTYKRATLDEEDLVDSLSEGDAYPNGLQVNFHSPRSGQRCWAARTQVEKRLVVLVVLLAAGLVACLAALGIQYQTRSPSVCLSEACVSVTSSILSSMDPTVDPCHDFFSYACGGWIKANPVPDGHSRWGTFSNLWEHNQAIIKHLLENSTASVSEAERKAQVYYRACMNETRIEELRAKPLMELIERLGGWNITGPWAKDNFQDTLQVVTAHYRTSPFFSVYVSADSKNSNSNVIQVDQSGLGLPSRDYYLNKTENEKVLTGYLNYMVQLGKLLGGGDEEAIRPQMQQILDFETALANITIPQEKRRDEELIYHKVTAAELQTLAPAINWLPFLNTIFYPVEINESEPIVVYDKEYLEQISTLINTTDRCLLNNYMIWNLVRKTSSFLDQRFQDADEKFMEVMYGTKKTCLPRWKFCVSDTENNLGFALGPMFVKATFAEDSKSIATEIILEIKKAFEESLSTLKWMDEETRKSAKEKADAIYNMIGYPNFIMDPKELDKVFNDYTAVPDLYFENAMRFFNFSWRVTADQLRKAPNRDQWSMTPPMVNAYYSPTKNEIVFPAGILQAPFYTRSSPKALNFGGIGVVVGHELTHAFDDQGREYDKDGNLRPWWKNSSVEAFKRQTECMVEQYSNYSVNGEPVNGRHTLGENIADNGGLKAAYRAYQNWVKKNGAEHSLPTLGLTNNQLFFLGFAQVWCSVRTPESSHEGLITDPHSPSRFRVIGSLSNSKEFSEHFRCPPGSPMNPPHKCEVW

Chain of Neprilysin (P08473 whole entry): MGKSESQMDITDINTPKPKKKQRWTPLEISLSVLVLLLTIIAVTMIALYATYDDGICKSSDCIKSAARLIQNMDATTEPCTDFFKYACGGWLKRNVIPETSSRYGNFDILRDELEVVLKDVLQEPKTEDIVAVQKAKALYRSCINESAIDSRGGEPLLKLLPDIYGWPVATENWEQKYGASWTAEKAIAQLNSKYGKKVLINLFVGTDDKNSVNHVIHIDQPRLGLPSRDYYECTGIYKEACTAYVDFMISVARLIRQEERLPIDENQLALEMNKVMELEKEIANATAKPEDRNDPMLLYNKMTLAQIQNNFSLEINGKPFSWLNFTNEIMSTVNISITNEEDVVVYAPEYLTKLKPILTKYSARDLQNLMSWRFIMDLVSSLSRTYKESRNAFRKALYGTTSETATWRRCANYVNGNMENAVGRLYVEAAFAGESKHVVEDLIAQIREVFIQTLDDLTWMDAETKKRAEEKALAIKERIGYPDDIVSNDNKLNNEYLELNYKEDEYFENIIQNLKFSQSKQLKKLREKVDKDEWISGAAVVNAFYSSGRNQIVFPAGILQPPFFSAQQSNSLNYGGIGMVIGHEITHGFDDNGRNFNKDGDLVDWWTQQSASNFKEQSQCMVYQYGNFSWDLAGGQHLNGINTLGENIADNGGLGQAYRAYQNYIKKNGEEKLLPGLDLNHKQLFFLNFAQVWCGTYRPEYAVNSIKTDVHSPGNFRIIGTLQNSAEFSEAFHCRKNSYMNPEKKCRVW

O=C(N[C@@H](Cc1ccccc1)P(=O)(O)CC(Cc1ccccc1)C(=O)N[C@H](Cc1ccccc1)C(=O)O)OCc1ccccc1 (stereo partly drawn)
IC50 (Neprilysin): > 60 µM | IC50 [1]: > 100 µM

O=C(O)CNC(=O)C(Cc1ccccc1)CP(=O)(O)[C@H](Cc1ccccc1)NC(=O)OCc1ccccc1 (stereo partly drawn)
IC50 (Neprilysin): 0.9 µM | IC50 [1]: 80 µM

O=C(O)[C@H](Cc1c[nH]c2ccccc12)NC(=O)[C@H](Cc1ccccc1)NP(=O)(O)CCCCc1ccccc1
IC50 [1]: 0.4 µM

CC(C)[C@H](NC(=O)C(Cc1ccccc1)CP(=O)(O)[C@H](Cc1ccccc1)NC(=O)OCc1ccccc1)C(N)=O (stereo partly drawn)
IC50 [1]: 20 µM

N=C(N)NCCCC(NC(=O)C(Cc1ccccc1)CP(=O)(O)[C@H](Cc1ccccc1)NC(=O)OCc1ccccc1)C(=O)O (mixture of isomers)
IC50 (Neprilysin): 0.8 µM | IC50 [1]: 4.3 µM

CCC(C)C(NC(=O)C(Cc1ccccc1)CP(=O)(O)[C@H](Cc1ccccc1)NC(=O)OCc1ccccc1)C(=O)O (mixture of isomers)
IC50 [1]: 4 µM

CC(C)[C@@H](NC(=O)C(Cc1ccccc1)CP(=O)(O)[C@H](Cc1ccccc1)NC(=O)OCc1ccccc1)C(=O)O (mixture of isomers)
IC50 [1]: 60 µM

O=C(O)CCC(NC(=O)C(Cc1ccccc1)CP(=O)(O)[C@H](Cc1ccccc1)NC(=O)OCc1ccccc1)C(=O)O (mixture of isomers)
IC50 [1]: 25 µM

O=C(O)CCNC(=O)C(Cc1ccccc1)CP(=O)(O)[C@H](Cc1ccccc1)NC(=O)OCc1ccccc1 (mixture of isomers)
IC50 (Neprilysin): 2.3 µM | IC50 [1]: 50 µM

O=C(N[C@@H](Cc1ccccc1)P(=O)(O)CC(Cc1ccccc1)C(=O)NC(Cc1c[nH]cn1)C(=O)O)OCc1ccccc1 (mixture of isomers)
IC50 (Neprilysin): 10 µM | IC50 [1]: 20 µM

O=C(O)CC(NC(=O)C(Cc1ccccc1)CP(=O)(O)[C@H](Cc1ccccc1)NC(=O)OCc1ccccc1)C(=O)O (mixture of isomers)
IC50 [1]: 30 µM

NCCCCC(NC(=O)C(Cc1ccccc1)CP(=O)(O)[C@H](Cc1ccccc1)NC(=O)OCc1ccccc1)C(=O)O (mixture of isomers)
IC50 (Neprilysin): > 100 µM | IC50 [1]: 30 µM

CC(NC(=O)C(Cc1ccccc1)CP(=O)(O)[C@H](Cc1ccccc1)NC(=O)OCc1ccccc1)C(=O)O (mixture of isomers)
IC50 (Neprilysin): 0.3 µM | IC50 [1]: 8 µM

CC(C)C(NC(=O)C(Cc1ccccc1)CP(=O)(O)[C@H](Cc1ccccc1)NC(=O)OCc1ccccc1)C(=O)O (mixture of isomers)
IC50 [1]: 1.7 µM

NC(=O)CC(NC(=O)C(Cc1ccccc1)CP(=O)(O)[C@H](Cc1ccccc1)NC(=O)OCc1ccccc1)C(=O)O (mixture of isomers)
IC50 (Neprilysin): 10 µM | IC50 [1]: 20 µM

NC(=O)CCC(NC(=O)C(Cc1ccccc1)CP(=O)(O)[C@H](Cc1ccccc1)NC(=O)OCc1ccccc1)C(=O)O (mixture of isomers)
IC50 (Neprilysin): 15 µM | IC50 [1]: 6 µM

O=C(N[C@@H](Cc1ccccc1)P(=O)(O)CC(Cc1ccccc1)C(=O)NC(Cc1ccc(O)cc1)C(=O)O)OCc1ccccc1 (mixture of isomers)
IC50 (Neprilysin): 2.3 µM | IC50 [1]: 12 µM

O=C(N[C@@H](Cc1ccccc1)P(=O)(O)CC(Cc1ccccc1)C(=O)NC(Cc1ccccc1)C(=O)O)OCc1ccccc1 (mixture of isomers)
IC50 (Neprilysin): 0.8 µM | IC50 [1]: 10 µM

O=C(N[C@@H](Cc1ccccc1)P(=O)(O)CC(Cc1ccccc1)C(=O)NC(Cc1c[nH]c2ccccc12)C(=O)O)OCc1ccccc1 (mixture of isomers)
IC50 (Neprilysin): 1.4 µM | IC50 [1]: 1.1 µM

O=C(O)CC[C@@H](NC(=O)C(Cc1ccccc1)CP(=O)(O)[C@H](Cc1ccccc1)NC(=O)OCc1ccccc1)C(=O)O (mixture of isomers)
IC50 [1]: > 100 µM

N=C(N)NCCC[C@@H](NC(=O)C(Cc1ccccc1)CP(=O)(O)[C@H](Cc1ccccc1)NC(=O)OCc1ccccc1)C(=O)O (mixture of isomers)
IC50 (Neprilysin): > 60 µM | IC50 [1]: > 100 µM

CCCCC(NC(=O)C(Cc1ccccc1)CP(=O)(O)[C@H](Cc1ccccc1)NC(=O)OCc1ccccc1)C(=O)O (mixture of isomers)
IC50 [1]: 12 µM

CC(O)C(NC(=O)C(Cc1ccccc1)CP(=O)(O)[C@H](Cc1ccccc1)NC(=O)OCc1ccccc1)C(=O)O (mixture of isomers)
IC50 (Neprilysin): 10 µM | IC50 [1]: 5 µM

CC(C)CC(NC(=O)C(Cc1ccccc1)CP(=O)(O)[C@H](Cc1ccccc1)NC(=O)OCc1ccccc1)C(=O)O (mixture of isomers; form 1)
IC50 [1]: 23 µM

CC(C)CC(NC(=O)C(Cc1ccccc1)CP(=O)(O)[C@H](Cc1ccccc1)NC(=O)OCc1ccccc1)C(=O)O (mixture of isomers; form 2)
IC50 [1]: 20 µM

C[C@H](O)[C@@H](NC(=O)C(Cc1ccccc1)CP(=O)(O)[C@H](Cc1ccccc1)NC(=O)OCc1ccccc1)C(=O)O (single isomer, unassigned)
IC50 (Neprilysin): 50 µM | IC50 ([1]; endothelial cell): > 100 µM

O=C(N[C@@H](Cc1ccccc1)P(=O)(O)CC(Cc1ccccc1)C(=O)NC(Cc1ccc(O)cc1)C(=O)O)OCc1ccccc1 (single isomer, unassigned)
IC50 (Neprilysin): 1 µM | IC50 [1]: 7 µM

C[C@H](O)[C@@H](NC(=O)C(Cc1ccccc1)CP(=O)(O)[C@H](Cc1ccccc1)NC(=O)OCc1ccccc1)C(=O)O (stereo in doubt)
IC50 (Neprilysin): > 100 µM | IC50 [1]: > 100 µM

CC(C)[C@@H](NC(=O)C(Cc1ccccc1)CP(=O)(O)[C@H](Cc1ccccc1)NC(=O)OCc1ccccc1)C(=O)O (stereo in doubt)
IC50 [1]: > 100 µM

NCCCCC(NC(=O)C(Cc1ccccc1)CP(=O)(O)[C@H](Cc1ccccc1)NC(=O)OCc1ccccc1)C(=O)O (stereo in doubt)
IC50 (Neprilysin; endothelial cell): > 100 µM | IC50 [1]: 60 µM

CC(C)C(NC(=O)C(Cc1ccccc1)CP(=O)(O)[C@H](Cc1ccccc1)NC(=O)OCc1ccccc1)C(=O)O (stereo in doubt)
IC50 [1]: 80 µM

NC(=O)CCC(NC(=O)C(Cc1ccccc1)CP(=O)(O)[C@H](Cc1ccccc1)NC(=O)OCc1ccccc1)C(=O)O (stereo in doubt)
IC50 (Neprilysin): > 100 µM | IC50 [1]: > 100 µM

O=C(N[C@@H](Cc1ccccc1)P(=O)(O)CC(Cc1ccccc1)C(=O)NC(Cc1c[nH]c2ccccc12)C(=O)O)OCc1ccccc1 (stereo in doubt)
IC50 (Neprilysin): 10 µM | IC50 [1]: 5.8 µM
